According to US20100226919A1, “Antitumoral Treatments” (Pharma Mar, S.A., priority 2007, published 2010):
Where two headings read alike, the source gives them in different places.

Columns and labels:
mouse leukemia (P388) = details: cited from earlier work
[1] = test system: non-small cell lung (A549); details: cited from earlier work
colon (HT-29) = details: cited from earlier work
A549 cells = details: read-out: IC50 (50% cell growth inhibition); A549, 72 h exposure; range given for four highly sensitive cell lines
Description: (§1) Nine human NSCLC cell lines that were characterized for EGFR, Ras, and p53 gene expression and sensitivity to a variety of antitumor agents (paclitaxel, premetrexed, erlotinib, etc.) were used as models to examine the cell sensitivity to PM02734 trifluoroacetate salt. These NSCLC cell lines are the following: H322, A549, H661, H1299, H1975 with L858R and T790M EGFR double mutation, H358, H460, H1650 with L858R EGFR mutation, and H3255 with […]. […] H3255 cell line is a gift from Dr. Pasi A. Jänne (Dana-Farber Cancer Institute, Boston Mass.).
(§2) Exponentially growing cells (1×10^5/ml) were plated in 96-well plates and allowed to attach overnight. Cells were exposed to various concentrations of PM02734 trifluoroacetate salt at 37° C. for 72 hours.
(§3) H322, A549, H1299 and H460 cells were plated in 96-well plates as described above. […] Enzyme Regul. […] The synergistic effects (CI index) were analyzed by software CalcuSyn.

H1299 cells = details: read-out: IC50 (50% cell growth inhibition); H1299, 72 h exposure; range given for two cell lines of intermediate sensitivity
Description: as §1, §2, §3

H322 cells [2] = details: read-out: IC50 (50% cell growth inhibition); H322, 72 h exposure; range given for four highly sensitive cell lines
Description: as §1, §2, §3

H460 cells = details: read-out: IC50 (50% cell growth inhibition); H460, 72 h exposure; resistant cell lines
Description: as §1, §2, §3

H1650 cells = details: read-out: IC50 (50% cell growth inhibition); H1650 (EGFR mutant), 72 h exposure; resistant cell lines
Description: as §1, §2

H1975 cells = details: read-out: IC50 (50% cell growth inhibition); H1975 (double EGFR mutant), 72 h exposure; range given for two cell lines of intermediate sensitivity
Description: as §1, §2

H3255 cells [3] = details: read-out: IC50 (50% cell growth inhibition); H3255 (EGFR mutant), 72 h exposure; range given for four highly sensitive cell lines
Description: as §1, §2

H358 cells = details: read-out: IC50 (50% cell growth inhibition); H358, 72 h exposure; resistant cell lines
Description: as §1, §2

H661 cells = details: read-out: IC50 (50% cell growth inhibition); H661, 72 h exposure; range given for four highly sensitive cell lines
Description: as §1, §2

H322 cells [4] = test: Cell-cycle progression and apoptosis by propidium iodide FACS analysis; type: cell-based, human; details: H322, 0.5 μM, 0, 3, 6 and 24 hours
Method: H322 cells were plated in a 6-well plate and incubated with RPMI1640 medium with 10% fetal bovine serum at 37° C. overnight. […] At the indicated time point, cells were harvested by trypsinization and fixed with cold 75% ethanol at 4° C. overnight. Cells were incubated with 1 μg/ml of propidium iodide and 5 μg/ml of RNase I at room temperature for 3 hours. The cell-cycle distribution and apoptotic cells (Sub-G0/G1) were measured by FACS analysis (BD Biosciences, San Joes, Calif.).

[5] = test system: human A549 NSCLC cell line; test: A549 subcutaneous xenograft model in nude mice; type: in vivo; details: PM02734 0.1 mg/kg i.v. 3 times per week for 2 weeks; erlotinib 50 mg/kg p.o. 5 times per week for 2 weeks; p<0.001
Method: PM02734 was administered in its trifluoroacetate salt using water for injection as vehicle. Erlotinib was administered using sterile water as vehicle.
Nude mice (NUR-NU-F-M, female, 5-6 weeks old, Taconic Farm, Germantown N.Y.) were subcutaneously implanted with the human A549 NSCLC cell line (4.5×10^6 cells/mouse). Seven days later, mice were randomly divided into 4 groups with 5 mice per group. One group of mice received the combination treatment (PM02734: 0.1 mg/kg×3 times per week (on days 1, 3, and 5) for 2 weeks, i.v.; erlotinib: 50 mg/kg×5 times per week (on days 1, 2, 3, 4, and 5) for 2 weeks, p.o.). In this group erlotinib was given first followed two hours later by the administration of PM02734. The other groups were treated with PM02734 alone (0.1 mg/kg×3 times per week (on days 1, 3, and 5) for 2 weeks, i.v.), erlotinib alone (50 mg/kg×5 times per week (on days 1, 2, 3, 4, and 5) for 2 weeks, p.o.) or without treatment. Tumor size was measured twice a week. Tumor volume was calculated using the following equation: Tumor volume (mm^3)=0.5×longer diameter×(shorter diameter)^2 in millimeter. The experiment was terminated when ≧50% mice had tumors larger than 15 mm (i.e., the longer diameter>15 mm).

H322 cells [6] = details: only two of the nine cell lines sensitive; cited from earlier work
H3255 cells [7] = details: only two of the nine cell lines sensitive; cited from earlier work
H322 cells [8] = details: from Ling et al., Mol Pharmacol 2007; cited from earlier work

**Q.** With Kahalalide F as the compound, how does the “in vitro antitumor activity” value (mouse leukemia (P388)) read?
**A.** micromolar activity

**Q.** What about the “in vitro antitumor activity” value [1] of the same compound?
**A.** micromolar activity

**Q.** And the “in vitro antitumor activity” value (colon (HT-29))?
**A.** micromolar activity

**Q.** With C/C=C1\NC(=O)[C@H](Cc2ccccc2)NC(=O)[C@@H](C(C)C)NC(=O)[C@@H]([C@@H](C)CC)NC(=O)[C@H](NC(=O)[C@H](NC(=O)[C@H](CCCN)NC(=O)[C@H]2CCCN2C(=O)[C@H](NC(=O)[C@@H](NC(=O)[C@@H](NC(=O)[C@H](NC(=O)CC[C@@H](C)CC)C(C)C)[C@@H](C)O)C(C)C)C(C)C)[C@@H](C)CC)[C@@H](C)OC(=O)[C@H](C(C)C)NC1=O [PM02734, (4S)-MeHex-D-Val-L-Thr-L-Val-D-Val-D-Pro-L-Orn-D-allo-Ile-cyclo(D-allo-Thr-D-allo-Ile-D-Val-L-Phe-Z-Dhb-L-Val)] as the compound, how does the IC50 (A549 cells) read?
**A.** 0.3 to 1.25 µM

**Q.** And the IC50 (H1299 cells)?
**A.** 2 to 2.8 µM

**Q.** What about the IC50 (H322 cells [2]) of the same compound?
**A.** 0.3 to 1.25 µM

**Q.** What about the IC50 (H460 cells) of the same compound?
**A.** > 5 µM

**Q.** What about the IC50 (H1650 cells) of the same compound?
**A.** > 5 µM

**Q.** What about the IC50 (H1975 cells) of the same compound?
**A.** 2 to 2.8 µM

**Q.** And the IC50 (H3255 cells [3])?
**A.** 0.3 to 1.25 µM

**Q.** And the IC50 (H358 cells)?
**A.** > 5 µM

**Q.** And the IC50 (H661 cells)?
**A.** 0.3 to 1.25 µM

**Q.** And the “apoptotic cells (Sub-G0/G1)” value (H322 cells [4])?
**A.** apoptotic cell death in a time-dependent manner

**Q.** What about the “effect on cell-cycle progression” value (H322 cells [4]) of the same compound?
**A.** cell cycle arrest at S-phase

**Q.** And the “% treated vs. control tumor volume ratio (% T/C)” value [5]?
**A.** 74%

**Q.** Which “cell sensitivity to erlotinib” value (H322 cells [6]) does the source give for C#Cc1cccc(Nc2ncnc3cc(OCCOC)c(OCCOC)cc23)c1 [erlotinib, Erlotinib] here?
**A.** sensitive

**Q.** What about the “cell sensitivity to erlotinib” value (H3255 cells [7]) of the same compound?
**A.** sensitive

**Q.** And the “effect on cell-cycle progression” value (H322 cells [8])?
**A.** G1/S phase arrest
